According to US8916551B2, “Heterocyclic compound and use thereof” (Takeda Pharmaceutical Company Limited, priority 2010, dated 2014):

Molecular target: T1, AMPA receptor (human GluR1 flip/stargazin expressed in CHO-K1 cells) (Homo sapiens, UniProt P42261)
T1 construct: expressed in transfected cells; host or cells: CHO-K1
Test: AMPA receptor function enhancing activity using calcium influx as index
Type: cell-based
Details: 100% = 3 mM glutamic acid + 300 μM cyclothiazide, 0% = 3 mM glutamic acid only
Excerpt: Human GluR1 flip cDNA was amplified by PCR using forward primer […] (SEQ ID NO: 1) and reverse primer […] (SEQ ID NO: 2) artificially synthesized using human brain-derived cDNA (BD Bio science) as a template. The amplified product was digested with restriction enzymes EcoRI, NotI (TAKARA SHUZO CO. LTD.), and incorporated into the same site of pcDNA3.1(+) (Invitrogen) to construct pcDNA3.1(+)/human GluR1 flip gene. Human stargazin cDNA was amplified by PCR using forward primer […] (SEQ ID NO: 3) and reverse primer […] (SEQ ID NO: 4) artificially synthesized using human hippocampus cDNA as a template. The amplified product was digested with restriction enzymes XhoI, BamHI (TAKARA SHUZO CO. LTD.), and incorporated into the same site of pcDNA3.1(−) (Invitrogen) to construct pcDNA3.1 Zeo(−)/human stargazin gene.
CHO-K1 cells passaged in a culture medium (Ham's F12 medium (Invitrogen) added with 10% inactivated fetal bovine serum (Morgate) and penicillin, streptomycin (Invitrogen)) were detached with 0.05% trypsin, 0.53 mM EDTA (Invitrogen) diluted with D-PBS(−). The detached cells were suspended in a culture medium, and recovered by a centrifugation operation at 1,000 rpm. The recovered cells were suspended again in D-PBS(−), and added to a 0.4 cm electroporation cuvette (BioRad). pcDNA3.1(+)/human GluR1 flip gene (5 μg) and pcDNA3.1 Zeo(−)/human stargazin gene (15 μg) were added, and the mixture was introduced into CHO-K1 cells using Gene Pulser II (BioRad) under the conditions of 950 μFd, […]. The introduced cells were cultured overnight in a culture medium and, the next day, plated in a 96 well plate at 250 cells/well using a selection medium (culture medium added with Zeocin (Invitrogen) to 250 μg/mL). Clones showing drug resistance were selected, and GluR1 flip/stargazin expressing clones were selected by an assay method using calcium influx as an index as shown below.
CHO-K1/GluR1 flip/stargazin expressing cells were plated on a 96 well black transparent bottom plate (Costar) at 2×10^4 cells/well, and cultured in a 37° C., CO2 incubator (SANYO Electric Co., Ltd.) for 2 days. The medium in the cell plate was removed, and assay buffer A (D-MEM (Invitrogen), 0.1% BSA (Serogical Protein), 20 mM HEPES (Invitrogen)) was added at 50 μL/well. A calcium indicator (Calcium 4 Assay Kit, Invitrogen) added with 2.5 mM probenecid (Invitrogen) was added at 50 μL/well and the well was left standing in 37° C., CO2 incubator for 1 hr. The cell plate was set in CellLux (PerkinElmer), a mixture (50 μL) of 9 mM glutamic acid diluted with assay buffer B (HBSS (Invitrogen), 0.1% BSA, 20 mM HEPES) (final concentration 3 mM) and a test compound (test compound concentration 30 μM) was added, and the amount of change in fluorescence level in 3 min was measured. In the definition here, the amount of change in fluorescence level of well added with glutamic acid at final concentration 3 mM and 300 μM cyclothiazide (TOCRIS) is 100%, the amount of change in fluorescence level of well added only with glutamic acid at final concentration 3 mM is 0%, and the compound activity was calculated according to the following formula. activity(%)=(X−C)/(T−C)×100 T: amount of change in fluorescence level of well added with glutamic acid at final concentration 3 mM and 300 μM cyclothiazide C: amount of change in fluorescence level of well added only with glutamic acid at final concentration 3 mM X: amount of change in fluorescence level of well added with test compound

[1] = test compound 30 μM with glutamic acid final 3 mM, change in fluorescence in 3 min
[2] = test compound 30 μM with 3 mM glutamic acid, change in fluorescence level in 3 min

T1 sequence (P42261 19-906 isoform P42261-2 limits assumed): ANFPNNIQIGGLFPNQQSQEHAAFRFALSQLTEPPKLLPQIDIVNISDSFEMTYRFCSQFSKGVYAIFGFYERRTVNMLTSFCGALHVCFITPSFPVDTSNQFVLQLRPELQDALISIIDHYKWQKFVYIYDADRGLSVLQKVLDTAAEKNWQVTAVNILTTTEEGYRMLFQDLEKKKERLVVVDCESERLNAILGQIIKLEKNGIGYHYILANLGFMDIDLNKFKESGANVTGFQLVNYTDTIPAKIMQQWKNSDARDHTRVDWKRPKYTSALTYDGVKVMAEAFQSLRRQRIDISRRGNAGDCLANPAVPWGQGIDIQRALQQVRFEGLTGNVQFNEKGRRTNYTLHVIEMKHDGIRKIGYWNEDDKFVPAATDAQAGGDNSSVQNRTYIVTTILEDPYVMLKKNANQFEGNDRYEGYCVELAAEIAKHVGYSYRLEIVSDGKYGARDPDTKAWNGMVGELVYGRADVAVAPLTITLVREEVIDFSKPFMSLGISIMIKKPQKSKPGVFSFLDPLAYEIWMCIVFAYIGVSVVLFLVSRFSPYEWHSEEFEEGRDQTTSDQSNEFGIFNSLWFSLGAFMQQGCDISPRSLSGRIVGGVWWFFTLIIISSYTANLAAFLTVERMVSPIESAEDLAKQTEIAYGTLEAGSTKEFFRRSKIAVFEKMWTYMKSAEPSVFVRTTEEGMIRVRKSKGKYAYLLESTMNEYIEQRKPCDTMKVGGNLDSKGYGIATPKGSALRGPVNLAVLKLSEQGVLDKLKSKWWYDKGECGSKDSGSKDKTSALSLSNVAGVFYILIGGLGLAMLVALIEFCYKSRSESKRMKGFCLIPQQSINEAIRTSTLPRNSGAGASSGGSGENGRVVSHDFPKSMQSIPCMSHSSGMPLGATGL
T1 sequence (Q9Y698 whole entry partner): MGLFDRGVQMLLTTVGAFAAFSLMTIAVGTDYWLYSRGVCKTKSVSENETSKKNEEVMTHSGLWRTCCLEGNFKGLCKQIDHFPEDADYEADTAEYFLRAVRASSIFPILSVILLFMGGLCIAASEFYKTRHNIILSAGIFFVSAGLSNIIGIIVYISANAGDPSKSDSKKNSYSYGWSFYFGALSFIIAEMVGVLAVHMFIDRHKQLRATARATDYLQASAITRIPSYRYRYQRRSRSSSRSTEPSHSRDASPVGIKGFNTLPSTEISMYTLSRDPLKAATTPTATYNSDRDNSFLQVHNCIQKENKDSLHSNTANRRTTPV

SMILES | activity (%) [1] [%] | activity (%) [2] [%]
CCc1cccc(Oc2ccc(C3CCCN4CCS(=O)(=O)N=C34)cc2)c1 (stereo not shown) [Example 132, 9-[4-(3-ethylphenoxy)phenyl]-3,4,6,7,8,9-hexahydropyrido[2,1-c][1,2,4]thiadiazine 2,2-dioxide] | 75 | 
Cc1ccc(Oc2ccc(C3=CC=CN4CCS(=O)(=O)N=C34)cc2)cc1C [Example 134, 9-[4-(3,4-dimethylphenoxy)phenyl]-3,4-dihydropyrido[2,1-c][1,2,4]thiadiazine 2,2-dioxide] | 77 | 
Cc1ccc(Oc2ccc(C3CCCN4CCS(=O)(=O)N=C34)cc2)cc1C (stereo not shown) [Example 135, 9-[4-(3,4-dimethylphenoxy)phenyl]-3,4,6,7,8,9-hexahydropyrido[2,1-c][1,2,4]thiadiazine 2,2-dioxide] | 59 | 
Cc1ccc(C(F)(F)c2ccc(C3=CC=CN4CCS(=O)(=O)N=C34)cc2)cc1 [Example 136, 9-{4-[difluoro(4-methylphenyl)methyl]phenyl}-3,4-dihydropyrido[2,1-c][1,2,4]thiadiazine 2,2-dioxide] | 77 | 
Cc1ccc(C(F)(F)c2ccc(C3CCCN4CCS(=O)(=O)N=C34)cc2)cc1 (stereo not shown) [Example 138, 9-{4-[difluoro(4-methylphenyl)methyl]phenyl}-3,4,6,7,8,9-hexahydropyrido[2,1-c][1,2,4]thiadiazine 2,2-dioxide] | 71 | 
O=S1(=O)CCN2CCCC(c3ccc(Oc4ccc5c(c4)OCC5)cc3)C2=N1 (stereo not shown) [Example 141, 9-[4-(2,3-dihydro-1-benzofuran-6-yloxy)phenyl]-3,4,6,7,8,9-hexahydropyrido[2,1-c][1,2,4]thiadiazine 2,2-dioxide] | 80 | 
O=S1(=O)CCN2CCCC(c3ccc(Oc4ccc(Br)c(C(F)(F)F)c4)cc3)C2=N1 (stereo not shown) [Example 142, 9-{4-[4-bromo-3-(trifluoromethyl)phenoxy]phenyl}-3,4,6,7,8,9-hexahydropyrido[2,1-c][1,2,4]thiadiazine 2,2-dioxide] |  | 70
Cc1cc(F)ccc1Oc1ccc(C2CCCN3CCS(=O)(=O)N=C23)cc1 (stereo not shown) [Example 144, 9-[4-(4-fluoro-2-methylphenoxy)phenyl]-3,4,6,7,8,9-hexahydropyrido[2,1-c][1,2,4]thiadiazine 2,2-dioxide] |  | 76
Cc1cc(F)ccc1Oc1ccc(C2CCCN3CCS(=O)(=O)N=C23)cc1 (stereo not shown) [Example 145, 9-[4-(4-fluoro-2-methylphenoxy)phenyl]-3,4,6,7,8,9-hexahydropyrido[2,1-c][1,2,4]thiadiazine 2,2-dioxide] |  | 84
O=S1(=O)CCN2CCC[C@@H](c3ccc(Oc4ccc(Cl)cc4)cc3)C2=N1 [Example 149, (9S)-9-[4-(4-chlorophenoxy)phenyl]-3,4,6,7,8,9-hexahydropyrido[2,1-c][1,2,4]thiadiazine 2,2-dioxide] |  | 77
O=S1(=O)CCN2CCCC(c3ccc(Oc4ccc(Cl)c(Cl)c4)cc3)C2=N1 (stereo not shown) [Example 152, 9-[4-(3,4-dichlorophenoxy)phenyl]-3,4,6,7,8,9-hexahydropyrido[2,1-c][1,2,4]thiadiazine 2,2-dioxide] |  | 80
COc1cc(Oc2ccc(C3=CC=CN4CCS(=O)(=O)N=C34)cc2)ccc1Cl [Example 154, 9-[4-(4-chloro-3-methoxyphenoxy)phenyl]-3,4-dihydropyrido[2,1-c][1,2,4]thiadiazine 2,2-dioxide] |  | 75
COc1cc(Oc2ccc(C3CCCN4CCS(=O)(=O)N=C34)cc2)ccc1Cl (stereo not shown) [Example 155, 9-[4-(4-chloro-3-methoxyphenoxy)phenyl]-3,4,6,7,8,9-hexahydropyrido[2,1-c][1,2,4]thiadiazine 2,2-dioxide] |  | 63
CC(F)(F)c1cccc(Oc2ccc(C3=CC=CN4CCS(=O)(=O)N=C34)cc2)c1 [Example 156, 9-{4-[3-(1,1-difluoroethyl)phenoxy]phenyl}-3,4-dihydropyrido[2,1-c][1,2,4]thiadiazine 2,2-dioxide] |  | 90
CC(F)(F)c1cccc(Oc2ccc(C3CCCN4CCS(=O)(=O)N=C34)cc2)c1 (stereo not shown) [Example 158, 9-{4-[3-(1,1-difluoroethyl)phenoxy]phenyl}-3,4,6,7,8,9-hexahydropyrido[2,1-c][1,2,4]thiadiazine 2,2-dioxide] |  | 76
CC(F)(F)c1cccc(Oc2ccc(C3CCCN4CCS(=O)(=O)N=C34)cc2)c1 (stereo not shown) [Example 159, 9-{4-[3-(1,1-difluoroethyl)phenoxy]phenyl}-3,4,6,7,8,9-hexahydropyrido[2,1-c][1,2,4]thiadiazine 2,2-dioxide] |  | 90
O=S1(=O)CCN2CCC[C@@H](c3ccc(Oc4cc(C(F)(F)F)ccc4Cl)cc3)C2=N1 [Example 160, (9S)-9-{4-[2-chloro-5-(trifluoromethyl)phenoxy]phenyl}-3,4,6,7,8,9-hexahydropyrido[2,1-c][1,2,4]thiadiazine 2,2-dioxide] |  | 78
CCc1ccc(Oc2ccc(C3CCCN4CCS(=O)(=O)N=C34)cc2)cc1 (stereo not shown) [Example 161, 9-[4-(4-ethylphenoxy)phenyl]-3,4,6,7,8,9-hexahydropyrido[2,1-c][1,2,4]thiadiazine 2,2-dioxide] |  | 57
O=S1(=O)CCN2C=CC=C(c3ccc(C(F)(F)c4ccccc4)cc3)C2=N1 [Example 162, 9-{4-[difluoro(phenyl)methyl]phenyl}-3,4-dihydropyrido[2,1-c][1,2,4]thiadiazine 2,2-dioxide] |  | 56
O=S1(=O)CCN2CCCC(c3ccc(C(F)(F)c4ccccc4)cc3)C2=N1 (stereo not shown) [Example 163, 9-{4-[difluoro(phenyl)methyl]phenyl}-3,4,6,7,8,9-hexahydropyrido[2,1-c][1,2,4]thiadiazine 2,2-dioxide] |  | 74
COc1cc(Oc2ccc(C3CC(C)CN4CCS(=O)(=O)N=C34)cc2)ccc1F (stereo not shown) [Example 164, 9-[4-(4-fluoro-3-methoxyphenoxy)phenyl]-7-methyl-3,4,6,7,8,9-hexahydropyrido[2,1-c][1,2,4]thiadiazine 2,2-dioxide] |  | 69
CC1CC(c2ccc(Oc3cccc(C(C)(F)F)c3)cc2)C2=NS(=O)(=O)CCN2C1 (stereo not shown) [Example 171, 9-{4-[3-(1,1-difluoroethyl)phenoxy]phenyl}-7-methyl-3,4,6,7,8,9-hexahydropyrido[2,1-c][1,2,4]thiadiazine 2,2-dioxide] |  | 87
CC(F)(F)c1ccc(C2CCCN3CCS(=O)(=O)N=C23)cc1 (stereo not shown) [Example 174, 9-[4-(1,1-difluoroethyl)phenyl]-3,4,6,7,8,9-hexahydropyrido[2,1-c][1,2,4]thiadiazine 2,2-dioxide] |  | 79
O=S1(=O)CCN2CCCC(c3ccc(C(F)(F)F)cc3)C2=N1 (stereo not shown) [Example 177, 9-[4-(trifluoromethyl)phenyl]-3,4,6,7,8,9-hexahydropyrido[2,1-c][1,2,4]thiadiazine 2,2-dioxide] |  | 69
O=S1(=O)CCN2CCCC(c3ccc(OC(F)(F)F)cc3)C2=N1 (stereo not shown) [Example 179, 9-[4-(trifluoromethoxy)phenyl]-3,4,6,7,8,9-hexahydropyrido[2,1-c][1,2,4]thiadiazine 2,2-dioxide] |  | 69
